From ChEMBL document CHEMBL1811798, “Synthesis and evaluation of 2'-O-allyl substituted dinucleotide cap analog for mRNA translation” (Bioorg Med Chem, 2010) come the findings set out here.

For one test, the system named is Escherichia phage T7. Nature of the test: Binding affinity to bacteriophage T7 RNA polymerase assessed as incorporation of compound into supercoiled mRNA transcript at 6 mM after 2 hrs.
For test [1], the system named is Nucleic Acid. Briefly: Capping efficiency on beta-actin mRNA using [alpha-32P]-ATP at 1.6 mM after 2 hrs by HPLC analysis in presence of T7 RNA polymerase. It is filed as nucleic-acid assay.
For the next test, the system named is HeLa. Briefly: Translational efficiency bacteriophage T7 RNA polymerase expressed in human HeLa cells assessed as protein production using 5'-capped RAN after 16 hrs of post-transfection by luciferase reporter gene assay relative to standard cap analog. It is filed as cell-based. Conditions: Escherichia phage T7.
The test system of test [2] is Nucleic Acid. Briefly: Capping efficiency on beta-actin mRNA using [alpha-32P]-ATP at 1.6 mM after 2 hrs by gel shift assay in presence of T7 RNA polymerase. The class given is nucleic-acid assay. On the technique in general: Mobility shift assays separate free from complexed probe on a gel.

The structures appear in SMILES notation. Calls of active or inactive are those of the source. The calls are words filed in the database; no cut-off is given here.

On to `C=CCO[C@@H]1[C@H](O)[C@@H](COP(=O)(O)OP(=O)([O-])OP(=O)(O)OC[C@H]2O[C@@H](n3cnc4c(=O)[nH]c(N)nc43)[C@H](O)[C@@H]2O)O[C@H]1[n+]1cn(C)c2c(=O)[nH]c(N)nc21`, for which the outcome in the test with Escherichia phage T7 and in the test with Nucleic Acid [1] was Active. In addition, the fold change (FC) in the test with HeLa worked out at 1.7. In the test with Nucleic Acid [2], the Activity was 70%.
